Experimental data as given in patent publication EP1614683B1, “Indazole compounds and pharmaceutical compositions for inhibiting protein kinases, and methods for their use” (priority 1999, dated 2001).
Read-outs that look alike come from different tables or passages of the source.

Legend:
human CHK1 (FL-CHK1) = molecular target: T1, human CHK1 (FL-CHK1) (Homo sapiens, UniProt O14757); test: CHK1 coupled spectrophotometric assay; type: biochemical
T1 construct: C-terminally His-tagged full-length human CHK1 (FL-CHK1) was expressed using the baculovirus/insect cell system; made in house; host or cells: baculovirus/insect cell system
T1 sequence (O14757 1-476): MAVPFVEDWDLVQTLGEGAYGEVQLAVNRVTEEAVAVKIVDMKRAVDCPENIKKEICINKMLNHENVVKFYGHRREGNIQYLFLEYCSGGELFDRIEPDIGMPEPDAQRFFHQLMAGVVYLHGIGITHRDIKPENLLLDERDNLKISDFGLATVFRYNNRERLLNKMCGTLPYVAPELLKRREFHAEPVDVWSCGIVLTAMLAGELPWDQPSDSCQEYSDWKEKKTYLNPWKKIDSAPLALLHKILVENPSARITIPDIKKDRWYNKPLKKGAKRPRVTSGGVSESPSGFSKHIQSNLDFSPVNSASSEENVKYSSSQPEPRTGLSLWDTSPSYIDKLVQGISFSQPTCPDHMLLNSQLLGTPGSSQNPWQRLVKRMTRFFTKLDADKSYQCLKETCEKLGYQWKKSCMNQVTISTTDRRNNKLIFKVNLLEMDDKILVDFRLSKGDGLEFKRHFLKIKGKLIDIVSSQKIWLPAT
Source text: CHK1 Construct for Assay: C-terminally His-tagged full-length human CHK1 (FL-CHK1) was expressed using the baculovirus/insect cell system. […] The protein was purified by conventional chromatographic techniques.
The production of ADP from ATP that accompanies phosphoryl transfer to the synthetic substrate peptide Syntide-2 ([…]) was coupled to oxidation of NADH using phosphoenolpyruvate (PEP) through the actions of pyruvate kinase (PK) and lactic dehydrogenase (LDH). The oxidation of NADH was monitored by following the decrease of absorbance at 340 nm (∈340 = 6.22 cm^-1 mM^-1) using a HP8452 spectrophotometer. […] Assays were initiated with 10 nM of FL-CHK1. Ki values were determined by measuring initial enzyme activity in the presence of varying concentrations of test compounds. The data were analyzed using Enzyme Kinetic and Kaleidagraph software.

[1] = molecular target: T2, phosphorylated Tie-2 (aa 775-1122) (Homo sapiens, UniProt Q02763); test: TIE-2 spectrophotometric assay; type: biochemical; details: for inhibition at 10 µM: read-out: % Inhibition Tie2-P, compound tested at 10 µM; for inhibition at 1 µM: read-out: % Inhibition @ 1 µM Tie2-P
T2 construct: 4 to 12 nM phosphorylated Tie-2 (aa 775-1122); made in house; host or cells: insect cells
Description: This construct also carries a R774M mutation, which serves as the initiating methionine residue in translation.
The kinase-catalyzed production of ADP from ATP that accompanies phosphoryl transfer to the random copolymer poly(Glu4 Tyr) was coupled to the oxidation of NADH through the activities of pyruvate kinase (PK) and lactate dehydrogenase (LDH). NADH conversion to NAD* was monitored by the decrease in absorbance at 340 nm (ε = 6.22 cm^-1mM^-1) using a Beckman DU650 spectrophotometer. Typical reaction solutions contained 1 mM phosphoenolpyruvate, 0.24 mM NADH, 40 mM MgCl2, 5 mM DTT, 2.9 mg/mL poly(Glu4Tyr), 0.5 mM ATP, 15 units/mL PK, 15 units/mL LDH in 100 mM HEPES, pH 7.5. […]

[2] = system: human umbilical vein endothelial cells (HUVEC); test: HUVEC proliferation assay (VEGF-stimulated, MTT); type: cell-based; details: Homo sapiens, HUVEC, Table 1; read-out: HUVEC IC50
human FGF-R1 = human FGF-R1 (Homo sapiens, UniProt P11362, C488A/C584S/L457V); test: FGF-R spectrophotometric assay; type: biochemical; details: read-out: FGF* (% inhibition)
Description: The spectrophotometric assay was carried out as described above for VEGF-R2, except for the following changes in concentration: FGF-R = 50 nM, ATP = 2 mM, and poly(E4Y1) =15 mM.

LCK tyrosine kinase = LCK tyrosine kinase (Homo sapiens, UniProt P06239, C224D/P223M); test: LCK spectrophotometric assay; type: biochemical; details: read-out: Lck* (% inhibition)
Description: The spectrophotometric assay was carried out as described above for VEGF-R2, except for the following changes in concentration: LCK = 60 nM, MgCl2 = 0 mM, poly(E4Y1) = 20 mM.

[3] = read-out: CHK-1* (% inhibition @ 50 µM)
[4] = Table 5, 1 µM, bold values spectrophotometric assay, non-bolded DELFIA assay (bold not visible here)

T2 sequence (Q02763 775-1122): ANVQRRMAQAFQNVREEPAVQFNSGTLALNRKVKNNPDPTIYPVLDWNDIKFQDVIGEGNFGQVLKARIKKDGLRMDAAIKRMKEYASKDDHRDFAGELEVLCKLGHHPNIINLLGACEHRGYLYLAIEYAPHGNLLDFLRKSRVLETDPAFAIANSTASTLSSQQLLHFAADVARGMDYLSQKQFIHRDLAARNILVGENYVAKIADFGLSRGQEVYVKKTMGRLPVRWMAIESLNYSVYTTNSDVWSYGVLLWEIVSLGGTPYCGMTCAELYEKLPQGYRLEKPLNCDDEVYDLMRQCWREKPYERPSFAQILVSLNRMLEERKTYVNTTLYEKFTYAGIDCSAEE
Sequence of LCK tyrosine kinase (P06239 223-509 P223M/C224D): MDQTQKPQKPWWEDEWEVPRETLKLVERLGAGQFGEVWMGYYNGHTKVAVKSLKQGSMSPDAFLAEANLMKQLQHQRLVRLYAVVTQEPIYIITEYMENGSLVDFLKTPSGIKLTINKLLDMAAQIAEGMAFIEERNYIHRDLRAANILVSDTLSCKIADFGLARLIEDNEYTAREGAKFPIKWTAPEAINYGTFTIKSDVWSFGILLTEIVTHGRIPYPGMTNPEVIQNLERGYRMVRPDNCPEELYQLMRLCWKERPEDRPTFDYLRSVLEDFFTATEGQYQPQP
Sequence of human FGF-R1 (P11362 456-766 L457V/C488A/C584S): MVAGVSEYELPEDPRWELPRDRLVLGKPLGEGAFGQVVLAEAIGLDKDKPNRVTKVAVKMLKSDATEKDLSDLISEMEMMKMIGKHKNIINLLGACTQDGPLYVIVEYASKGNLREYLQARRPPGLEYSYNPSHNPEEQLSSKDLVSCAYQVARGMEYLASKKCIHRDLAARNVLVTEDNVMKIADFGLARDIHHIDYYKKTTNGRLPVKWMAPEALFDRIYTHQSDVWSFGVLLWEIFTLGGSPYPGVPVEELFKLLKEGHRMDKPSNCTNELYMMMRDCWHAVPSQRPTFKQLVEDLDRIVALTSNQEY

## 3-(1H-benzoimidazol-2-yl)-N-(4-hydroxy-3-methylphenyl)-1H-indazole-6-carboxamide [Example 53(c)]
Human CHK1 (FL-CHK1); Table 3; read-out: CHK-1* (Ki)
  Ki: 1.1 µM

## Oc1ccc(-c2ccc3c(-c4cc5ccccc5o4)n[nH]c3c2)cc1OCc1ccccc1 [2(e), 3-(Benzofuran-2-yl)-6-(3-benzyloxy-4-hydroxy-phenyl)-1H-indazole]
Human CHK1 (FL-CHK1); read-out: CHK -1* (% inhibition @ 20 µM)
  inhibition at 20 µM: 5%

## COCOc1ccc(Oc2ccc3c(/C=C/c4ccccc4)n[nH]c3c2)cc1 [8(b), 3-(E-styryl)-6-[4-(methoxymethoxy)phenoxy]-1H-indazole]
Human CHK1 (FL-CHK1); [3]
  inhibition at 50 µM: 12%

## Oc1ccc(Oc2ccc3c(/C=C/c4ccccc4)n[nH]c3c2)cc1 [9(b), 3-(E-styryl)-6-[4-hydroxyphenoxy]-1H-indazole]
[1]
  inhibition at 10 µM: 88%

## CN(c1cccc(NC(=O)OCc2ccccc2)c1)c1ccc2c(/C=C/c3ccccc3)n[nH]c2c1 [12(c), {3-[Methyl-(3-styryl-1H-indazol-6-yl)-amino]-phenyl}-carbamic acid benzyl ester]
[1]; [4]
  inhibition at 1 µM: 17%

## C=C(c1cccc(NC(=O)c2ncc(C)s2)c1)c1ccc2c(/C=C/c3ccccc3)n[nH]c2c1 [22(a), 6-(1-(3-(5-Methyl-thiaxole-2-carboxoylamido)phenyl)-vinyl)-3-styryl-1H-indazole]
[1]; [4]
  inhibition at 1 µM: 8%
[2]
  IC50: 0.012 µM

## COc1cc(-c2ccc3c(-c4nc5ccccc5[nH]4)n[nH]c3c2)c(C)cc1O [24(a), 4-[3-(1-H-Benzoimidazol-2-yl)-1-H-indazol-6-yl]-2-methoxy-5-methyl-phenol]
Human FGF-R1
  inhibition at 1 µM: 72%
LCK tyrosine kinase
  inhibition at 1 µM: 67%
[1]
  inhibition at 10 µM: 91%

## Cc1cc(O)ccc1-c1ccc2c(-c3nc4ccccc4[nH]3)n[nH]c2c1 [24(b), 4-[3-(1-H-Benzoimidazol-2-yl)-1-H-indazol-6-yl]-3-methylphenol]
Human FGF-R1
  inhibition at 1 µM: 88%
LCK tyrosine kinase
  inhibition at 1 µM: 96%
[1]
  inhibition at 10 µM: 92%

## Cc1cc(O)c(Cl)cc1-c1ccc2c(-c3nc4ccccc4[nH]3)n[nH]c2c1 [24(c), 4-[3-(1-H-Benzoimidazol-2-yl)-1-B-indazol-6-yl]-2-chloro-5-methyl-phenol]
Human FGF-R1
  inhibition at 1 µM: 89%
LCK tyrosine kinase
  inhibition at 1 µM: 93%
[1]
  inhibition at 1 µM: 94%

## C=C(c1ccccc1)c1ccc2c(/C=C/c3ccccc3)n[nH]c2c1 [Example 10, 6-(1-Phenyl-vinyl)-3-styryl-1H-indazole]
[1]
  inhibition at 10 µM: 20%
[2]
  IC50: > 0.7 µM

## CN(c1cccc(N)c1)c1ccc2c(/C=C/c3ccccc3)n[nH]c2c1 [Example 11, N-Methyl-N-(3-styryl-1H-indazol-6-yl)-benzene-1,3-diamine]
[1]; [4]
  inhibition at 1 µM: 40%

## CN(c1ccccc1)c1ccc2c(/C=C/c3ccccc3)n[nH]c2c1 [Example 14, Methyl-phenyl-(3-styryl-1H-indazol-6-yl)-amine]
Human CHK1 (FL-CHK1); read-out: CHK -1* (% inhibition @ 25 µM)
  inhibition at 25 µM: 12%

## O=C(c1ccccc1)c1ccc2c(/C=C/c3ccccc3)n[nH]c2c1 [Example 17, Phenyl-(3-styryl-1H-indazol-6-yl)-methanone]
[1]
  inhibition at 1 µM: 50%

## C=C(c1cccc(N)c1)c1ccc2c(/C=C/c3ccccc3)n[nH]c2c1 [Example 21, 6-(1-(3-Aminophenyl)-vinyl)-3-styryl-1H-indazole]
[1]; [4]
  inhibition at 1 µM: 27%
[2]
  IC50: > 0.7 µM

## Cc1c(O)ccc(NC(=O)c2ccc3c(-c4nc5ccccc5[nH]4)n[nH]c3c2)c1C [Example 53(d), 3-(1H-benzoimidazol-2-yl)-N-(4-hydroxy-2,3-dimethylphenyl)-1H-indazole-6-carboxamide]
Human CHK1 (FL-CHK1); Table 3; @ 100 µM; NI = no significant inhibition
  CHK-1* (inhibition @ 100 µM): Nl @ 100 µM

## CSc1cc(O)ccc1-c1ccc2c(-c3nc4ccccc4[nH]3)n[nH]c2c1 [Reference Example 24(k), 3-1H-Benzoimidazol-2-yl-6.(2-methylsulfanyl-4-hydroxyphenyl}-1H-indazole]
LCK tyrosine kinase
  inhibition at 1 µM: 89%
Human CHK1 (FL-CHK1); read-out: CHK1* (% inhibition)
  inhibition at 1 µM: 81%

## COc1cc(O)ccc1-c1ccc2c(-c3nc4ccncc4[nH]3)n[nH]c2c1 [Reference Example 25(a), 3-(3H-Imidazo[4,5-c]pyridin-2-yl)-6-(4-hydroxy-2-methoxyphenyl)-1H-indazole]
Human FGF-R1
  inhibition at 1 µM: 62%
LCK tyrosine kinase
  inhibition at 1 µM: 44%
Human CHK1 (FL-CHK1); read-out: CHK1* (% inhibition)
  inhibition at 1 µM: 49%

## COc1cc(O)ccc1-c1ccc2c(-c3nc4ccc(C(=O)NCCN5CCOCC5)cc4[nH]3)n[nH]c2c1 [Reference Example 25(b), 3-[6-(2-morpholin-4-yl-ethylcarbamoyl)-1H-benzoimidazol-2-yl]-6-(2-methoxy-4-hydroxyphenyl)-1H-indazole]
Human FGF-R1
  inhibition at 1 µM: 87%
LCK tyrosine kinase
  inhibition at 1 µM: 87%
Human CHK1 (FL-CHK1); read-out: CHK1* (% inhibition)
  inhibition at 1 µM: 83%

## COc1cc(O)ccc1-c1ccc2c(-c3nc4ccc(N5CCN(C)CC5)cc4[nH]3)n[nH]c2c1 [Reference Example 25(c), 3-[6-(4-methylpiperazin-1-yl)-1H-benzoimidazol-2-yl]-6-(2-methoxy-4-hydroxyphenyl)-1H-indazole]
Human FGF-R1
  inhibition at 1 µM: 96%
Human CHK1 (FL-CHK1); read-out: CHK1* (% inhibition)
  inhibition at 1 µM: 90%

## COc1cc(O)ccc1-c1ccc2c(-c3nc4c(N5CCN(C)CC5)cccc4[nH]3)n[nH]c2c1 [Reference Example 25(d)]
Human FGF-R1
  inhibition at 1 µM: 80%
LCK tyrosine kinase
  inhibition at 1 µM: 60%
Human CHK1 (FL-CHK1); read-out: CHK1* (% inhibition)
  inhibition at 1 µM: 87%

## COc1cc(O)ccc1-c1ccc2c(-c3ncc[nH]3)n[nH]c2c1 [Reference Example 25(e), 3-imidazol-2-yl-6-(2-methoxy-4-hydroxyphenyl)-1H-indazole]
Human FGF-R1
  inhibition at 1 µM: 26%
LCK tyrosine kinase
  inhibition at 1 µM: 13%
Human CHK1 (FL-CHK1); read-out: CHK1* (% inhibition)
  inhibition at 1 µM: 16%

## COc1cc(O)ccc1-c1ccc2c(-c3nc4cc(N(C)C)ccc4[nH]3)n[nH]c2c1 [Reference Example 25(h), 3-(5-Dimethylamino-1H-benzoimidazol-2-yl)-6-(2-methoxy-4-hydroxy-phenyl)-1H-indazole]
Human FGF-R1
  inhibition at 1 µM: 91%
LCK tyrosine kinase
  inhibition at 1 µM: 87%
Human CHK1 (FL-CHK1); read-out: CHK1* (% inhibition)
  inhibition at 1 µM: 86%

## COc1cccc(-c2ccc3c(/C=C/c4ccccc4)n[nH]c3c2)c1 [Reference Example 27(b)]
Human CHK1 (FL-CHK1); [3]
  inhibition at 50 µM: 28%

## COc1ccc(-c2ccc3c(/C=C/c4ccccc4)n[nH]c3c2)cc1 [Reference Example 27(c)]
Human CHK1 (FL-CHK1); read-out: CHK-1* (% inhibition @ 5 µM)
  inhibition at 5 µM: 11%

## C(=C\c1n[nH]c2cc(-c3cccc4ccccc34)ccc12)/c1ccccc1 [Reference Example 27(d)]
Human CHK1 (FL-CHK1); read-out: CHK-1* (% inhibition @ 10 µM)
  inhibition at 10 µM: 14%

## COc1ccc(-c2ccc3c(/C=C/c4ccccc4)n[nH]c3c2)cc1OC [Reference Example 27(j)]
Human CHK1 (FL-CHK1); [3]
  inhibition at 50 µM: 15%

## Clc1cccc(Cl)c1/C=C/c1n[nH]c2cc(-c3ccncc3)ccc12 [Reference Example 29(a), 6-pyrid-4-yl-3-E-[2-(2,6-dichlorophenyl)ethenyl]-1H-indazole]
Human CHK1 (FL-CHK1); Table 3; @ 25µM; NI = no significant inhibition
  CHK-1* (inhibition @ 25 µM): Nl @ 25µM

## Fc1ccc(F)c(/C=C/c2n[nH]c3cc(-c4ccncc4)ccc23)c1 [Reference Example 29(s), 6-pyrid-4-yl-3-E-[2-(2,5-difluorophenyl)ethenyl]-1H-indazole]
Human CHK1 (FL-CHK1); read-out: CHK-1* (Ki); Table 3
  Ki: 11 µM
